Measurements: US12479838B2, “D3 receptor agonist compounds; methods of preparation; intermediates thereof; and methods of use thereof” (THE UNITED STATES OF AMERICA, AS REPRESENTED BY THE …, priority 2019, dated 2025)
Like-named read-outs stand apart in the source and are kept apart here.

Experiments:
hD2LR = hD2LR (Homo sapiens (Human), UniProt P14416); assay: Competition binding vs. antagonist [3H]-N-methylspiperone, D2R; details: read-out: hD2LR Ki ± SEM
hD3R = hD3R (Homo sapiens (Human), UniProt P35462); assay: Competition binding vs. antagonist [3H]-N-methylspiperone, D3R; details: read-out: hD3R Ki ± SEM; vs. antagonist [3H]-N-methylspiperone
hD3R, sequence (P35462 whole entry): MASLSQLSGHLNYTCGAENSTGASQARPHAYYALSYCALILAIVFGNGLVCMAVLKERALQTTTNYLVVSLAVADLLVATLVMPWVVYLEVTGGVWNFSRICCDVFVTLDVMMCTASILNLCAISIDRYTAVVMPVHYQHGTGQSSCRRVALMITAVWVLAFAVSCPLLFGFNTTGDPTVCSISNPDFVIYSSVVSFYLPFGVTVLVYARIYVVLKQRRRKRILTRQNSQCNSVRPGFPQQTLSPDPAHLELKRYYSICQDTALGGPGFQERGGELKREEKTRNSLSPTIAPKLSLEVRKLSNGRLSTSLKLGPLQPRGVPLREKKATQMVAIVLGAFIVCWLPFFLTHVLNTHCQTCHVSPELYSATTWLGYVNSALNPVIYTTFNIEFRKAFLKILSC

human D2LR = human D2LR (Homo sapiens (Human), UniProt P14416); assay: Radioligand competition binding vs. [3H]-(R)-(+)-7-OH-DPAT, hD2R; details: vs. [3H]-(R)-(+)-7-OH-DPAT
human D2LR, sequence (P14416 whole entry): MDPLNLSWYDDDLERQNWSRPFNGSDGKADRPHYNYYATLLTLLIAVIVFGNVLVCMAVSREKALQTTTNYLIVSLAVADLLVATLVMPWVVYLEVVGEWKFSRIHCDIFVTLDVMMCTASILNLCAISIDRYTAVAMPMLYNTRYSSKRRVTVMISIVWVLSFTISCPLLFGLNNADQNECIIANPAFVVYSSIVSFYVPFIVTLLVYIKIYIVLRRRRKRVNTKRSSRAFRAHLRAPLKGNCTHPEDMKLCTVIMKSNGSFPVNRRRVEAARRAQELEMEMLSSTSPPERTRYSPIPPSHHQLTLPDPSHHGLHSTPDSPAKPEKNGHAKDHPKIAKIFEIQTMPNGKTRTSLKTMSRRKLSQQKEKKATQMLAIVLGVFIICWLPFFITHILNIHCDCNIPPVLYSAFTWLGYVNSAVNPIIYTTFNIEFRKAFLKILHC

hμOR = hμOR (Homo sapiens (Human), UniProt P35372); assay: Off-target competition binding vs. [3H]-DAMGO, hμOR; details: read-out: hμOR Ki ± SEM
hμOR, sequence (P35372 whole entry): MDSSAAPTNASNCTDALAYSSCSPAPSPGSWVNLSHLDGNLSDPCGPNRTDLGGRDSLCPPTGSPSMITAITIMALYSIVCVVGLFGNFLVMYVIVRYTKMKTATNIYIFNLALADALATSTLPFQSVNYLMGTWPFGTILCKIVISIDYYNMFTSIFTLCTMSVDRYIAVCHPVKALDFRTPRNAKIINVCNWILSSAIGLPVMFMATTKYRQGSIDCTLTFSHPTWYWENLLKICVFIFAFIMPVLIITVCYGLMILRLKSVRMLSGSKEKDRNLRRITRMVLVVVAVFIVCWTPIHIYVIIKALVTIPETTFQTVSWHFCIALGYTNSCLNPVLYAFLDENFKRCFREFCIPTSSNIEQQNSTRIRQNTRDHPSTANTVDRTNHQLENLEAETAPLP

human D3R = human D3R (Homo sapiens (Human), UniProt P35462); assay: Radioligand competition binding vs. [3H]-(R)-(+)-7-OH-DPAT, hD3R; details: vs. [3H]-(R)-(+)-7-OH-DPAT; for D4R/D3R / D2R/D3R: ratio of Ki; for D2R/D3R: D3R selectivity over D2R
human D3R, sequence (P35462 whole entry): as the sequence (P35462 whole entry) above

hD1R = hD1R (Homo sapiens (Human), UniProt P21728); assay: Off-target competition binding vs. [3H]-SCH23390, hD1R; details: read-out: hD1R Ki ± SEM
hD1R, sequence (P21728 whole entry): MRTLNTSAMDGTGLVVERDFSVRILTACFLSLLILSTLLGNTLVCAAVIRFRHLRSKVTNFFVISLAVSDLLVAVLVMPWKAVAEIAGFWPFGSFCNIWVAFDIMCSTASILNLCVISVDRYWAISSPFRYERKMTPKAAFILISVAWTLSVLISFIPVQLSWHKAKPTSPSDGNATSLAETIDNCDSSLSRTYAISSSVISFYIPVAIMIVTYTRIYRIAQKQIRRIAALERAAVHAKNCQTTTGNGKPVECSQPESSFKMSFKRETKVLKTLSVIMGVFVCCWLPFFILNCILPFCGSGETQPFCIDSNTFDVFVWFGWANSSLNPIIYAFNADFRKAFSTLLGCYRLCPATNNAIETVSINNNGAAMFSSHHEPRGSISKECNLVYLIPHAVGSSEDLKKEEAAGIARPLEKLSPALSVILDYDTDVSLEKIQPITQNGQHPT

human D4.4 = human D4.4 (Homo sapiens (Human), UniProt P21917); assay: Radioligand competition binding vs. [3H]-(R)-(+)-7-OH-DPAT, hD4R; details: HEK293 cells stably expressing hD4R, read-out: D4R Ki ± SEM
human D4.4, sequence (P21917 whole entry): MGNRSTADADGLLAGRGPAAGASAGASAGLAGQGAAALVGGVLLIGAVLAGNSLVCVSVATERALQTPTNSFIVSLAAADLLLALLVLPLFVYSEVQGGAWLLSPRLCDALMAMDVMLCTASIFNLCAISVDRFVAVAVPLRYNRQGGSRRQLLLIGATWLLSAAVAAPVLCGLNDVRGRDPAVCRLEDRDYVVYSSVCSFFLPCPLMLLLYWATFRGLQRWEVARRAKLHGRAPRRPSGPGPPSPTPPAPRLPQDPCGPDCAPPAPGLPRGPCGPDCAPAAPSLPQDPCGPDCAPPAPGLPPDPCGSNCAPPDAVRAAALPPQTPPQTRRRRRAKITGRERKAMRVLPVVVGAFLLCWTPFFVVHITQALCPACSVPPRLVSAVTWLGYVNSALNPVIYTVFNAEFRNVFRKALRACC

[1] = HEK293 cells stably expressing hD2R, read-out: D2R Ki ± SEM
[2] = vs. [3H]-DAMGO, HEK293 membranes, >100 = <50% inhibition at 100 μM
[3] = HEK293 cells stably expressing hD3R, read-out: D3R Ki ± SEM
[4] = HEK293, read-out: hD2LR Ki ± SEM
[5] = HEK293, read-out: hD3R Ki ± SEM

hD2LR, sequence (P14416 whole entry): as the sequence (P14416 whole entry) above

## C[C@H]1CO[C@@H](c2ccc(N)nc2)CN1CCn1cc(CNC(=O)c2cc3ccccc3[nH]2)nn1 [AB08-03, N-((1-(2-((2S,5S)-2-(6-aminopyridin-3-yl)-5-methylmorpholino)ethyl)-1H-1,2,3-triazol-4-yl)methyl)-1H-indole-2-carboxamide]
hD2LR
  Ki: 32300 ± 12700 nM
hD3R
  Ki: 2780 ± 1020 nM

## C[C@H]1CO[C@@H](c2ccc(N)nc2)CN1CC(O)CCNC(=O)c1cc2ccccc2[nH]1 (some centres unmarked) [FOB02-67]
Human D2LR; [1]
  Ki: 1010 ± 162 nM
hμOR; [2]
  Ki: 739 ± 70.1 nM
Human D3R; [3]
  Ki: 423 ± 164 nM

## CCCN1CCO[C@H]2c3cc(O)ccc3OC[C@@H]21 [(−)-(4aS,10bS)-2, reference compound]
Human D2LR; [4]
  Ki: 7580 ± 2620 nM
hD1R
  Ki: > 100000 nM
hμOR; [2]
  Ki: 77900 ± 41400 nM
Human D3R
  loss of D3R affinity relative to (+)-(4aR,10bR)-2: > 3000 fold
Human D3R; [5]
  Ki: 5620 nM

## O=C(NCCCCN1CCOC2c3cc(O)ccc3OC[C@@H]21)c1cc2ccccc2[nH]1 (stereo in doubt) [rel-cis-12]
Human D2LR; [4]
  Ki: 9420 ± 3440 nM
hD1R
  Ki: > 100000 nM
hμOR
  Ki: 12300 ± 2880 nM
Human D3R; [5]
  Ki: 13800 nM

## CCCN1CCO[C@@H]2c3cc(O)ccc3OC[C@H]21 [(+)-(4aR,10bR)-2, reference compound]
Human D2LR; [4]
  Ki: 28 ± 5.59 nM
hD1R
  Ki: > 100000 nM
hμOR; [2]
  Ki: 36600 ± 19800 nM
Human D3R; [5]
  Ki: 1.67 ± 0.257 nM

## C[C@H]1CO[C@@H](c2ccc(N)nc2)CN1C/C=C1\CCC(CNC(=O)c2cc3ccccc3[nH]2)C1 (some centres unmarked) [FOB04-02]
Human D2LR; [1]
  Ki: 55.9 ± 4.78 nM
Human D3R; [3]
  Ki: 7.41 ± 0.323 nM
hD2LR
  Ki: 7920 ± 772 nM
hD3R
  Ki: 104 ± 7.65 nM

## CCCN1CC(c2ccc(N)nc2)OC[C@@H]1C (some centres unmarked) [AB03-02, reference compound]
Human D2LR; [4]
  Ki: 1740 ± 348 nM
Human D4.4
  Ki: 292 ± 22.2 nM
Human D3R
  D4R/D3R: 1.58
  D2R/D3R: 9.41
Human D3R; [3]
  Ki: 185 ± 20.5 nM

## CCCN1CCO[C@@H]2c3cc(O)ccc3OC[C@H]21 [(+)-PD128,907, (4aR,10bR)-4-propyl-3,4,4a,10b-tetrahydro-2H,5H-chromeno[4,3-b][1,4]oxazin-9-ol, reference compound]
Human D2LR; [1]
  Ki: 20.5 ± 2.87 nM
Human D4.4
  Ki: 26.6 ± 3.97 nM
Human D3R
  D4R/D3R: 15.7
  D2R/D3R: 12.1
Human D3R; [3]
  Ki: 1.69 ± 0.0892 nM

## C[C@H]1CO[C@@H](c2ccc(N)nc2)CN1CC(=O)N1CCC(CNC(=O)c2cc3ccccc3[nH]2)C1 (stereo partly drawn) [AB07-80, N-((1-(2-((2S,5S)-2-(6-aminopyridin-3-yl)-5-methylmorpholino)acetyl)pyrrolidin-3-yl)methyl)-1H-indole-2-carboxamide]
Human D2LR; [1]
  Ki: 1840 nM
Human D3R; [3]
  Ki: 2010 nM
hD2LR
  Ki: 7930 ± 1190 nM
hD3R
  Ki: 2410 ± 287 nM

## CCCN(CCC)c1ccc(C2CN(CCC)[C@@H](C)CO2)cn1 (stereo partly drawn) [AB04-52, 5-((5S)-5-methyl-4-propylmorpholin-2-yl)-N,N-dipropylpyridin-2-amine]
Human D2LR; [1]
  Ki: 8240 nM
Human D4.4
  Ki: > 100000 nM
Human D3R
  D4R/D3R: >4.74
  D2R/D3R: 0.391
Human D3R; [3]
  Ki: 21100 nM
